Measurements from ChEMBL document CHEMBL5528056, “BAY-9835: Discovery of the First Orally Bioavailable ADAMTS7 Inhibitor” (J Med Chem, 2024).
Where “and” joins values, the source holds several entries; their conditions need not be identical. Identical values can stand only once.

Legend:
[1] = target: A disintegrin and metalloproteinase with thrombospondin motifs 7 (Homo sapiens, UniProt Q9UKP4); experiment: Inhibition of recombinant ADAMTS7 (unknown origin) using HiLyteFluor-488 DELSSMVLELRGLRT-K(QXL520)-E-NH2 as substrate incubated for 120 mins by FRET assay
[2] = Selectivity ratio of IC50 for MMP12 (unknown origin) to IC50 for ADAMTS7 (unknown origin)
[3] = Clearance in iv-dosed Wistar rat measured after 24 hrs by HPLC-MS/MS analysis; type: ADME; details: in vivo
[4] = Selectivity ratio of IC50 for ADAMTS12 (unknown origin) to IC50 for ADAMTS7 (unknown origin)
[5] = Selectivity ratio of IC50 for ADAM17 (unknown origin) to IC50 for ADAMTS7 (unknown origin)
[6] = Selectivity ratio of IC50 for ADAMTS4 (unknown origin) to IC50 for ADAMTS7 (unknown origin)
[7] = Selectivity ratio of IC50 for ADAMTS5 (unknown origin) to IC50 for ADAMTS7 (unknown origin)
[8] = Selectivity ratio of IC50 for MMP15 (unknown origin) to IC50 for ADAMTS7 (unknown origin)
[9] = Selectivity ratio of IC50 for MMP2 (unknown origin) to IC50 for ADAMTS7 (unknown origin)
[10] = target: Cytochrome P450 3A4 (Homo sapiens, UniProt P08684); experiment: Induction of CYP3A4 in human hepatocytes assessed as threshold concentration incubated for 48 hrs by qPCR analysis; type: ADME, cell-based, Hepatocyte
[11] = Oral bioavailability iv-dosed Wistar rat measured after 24 hrs by HPLC-MS/MS analysis; type: ADME, organism-based; details: in vivo
[12] = Unbound plasma protein binding in iv-dosed Wistar rat measured after 24 hrs by HPLC-MS/MS analysis; type: ADME, cell-free
[13] = AUC (infinity) in iv-dosed Wistar rat by HPLC-MS/MS analysis; type: ADME; details: in vivo

Chain of A disintegrin and metalloproteinase with thrombospondin motifs 7 (Q9UKP4 whole entry): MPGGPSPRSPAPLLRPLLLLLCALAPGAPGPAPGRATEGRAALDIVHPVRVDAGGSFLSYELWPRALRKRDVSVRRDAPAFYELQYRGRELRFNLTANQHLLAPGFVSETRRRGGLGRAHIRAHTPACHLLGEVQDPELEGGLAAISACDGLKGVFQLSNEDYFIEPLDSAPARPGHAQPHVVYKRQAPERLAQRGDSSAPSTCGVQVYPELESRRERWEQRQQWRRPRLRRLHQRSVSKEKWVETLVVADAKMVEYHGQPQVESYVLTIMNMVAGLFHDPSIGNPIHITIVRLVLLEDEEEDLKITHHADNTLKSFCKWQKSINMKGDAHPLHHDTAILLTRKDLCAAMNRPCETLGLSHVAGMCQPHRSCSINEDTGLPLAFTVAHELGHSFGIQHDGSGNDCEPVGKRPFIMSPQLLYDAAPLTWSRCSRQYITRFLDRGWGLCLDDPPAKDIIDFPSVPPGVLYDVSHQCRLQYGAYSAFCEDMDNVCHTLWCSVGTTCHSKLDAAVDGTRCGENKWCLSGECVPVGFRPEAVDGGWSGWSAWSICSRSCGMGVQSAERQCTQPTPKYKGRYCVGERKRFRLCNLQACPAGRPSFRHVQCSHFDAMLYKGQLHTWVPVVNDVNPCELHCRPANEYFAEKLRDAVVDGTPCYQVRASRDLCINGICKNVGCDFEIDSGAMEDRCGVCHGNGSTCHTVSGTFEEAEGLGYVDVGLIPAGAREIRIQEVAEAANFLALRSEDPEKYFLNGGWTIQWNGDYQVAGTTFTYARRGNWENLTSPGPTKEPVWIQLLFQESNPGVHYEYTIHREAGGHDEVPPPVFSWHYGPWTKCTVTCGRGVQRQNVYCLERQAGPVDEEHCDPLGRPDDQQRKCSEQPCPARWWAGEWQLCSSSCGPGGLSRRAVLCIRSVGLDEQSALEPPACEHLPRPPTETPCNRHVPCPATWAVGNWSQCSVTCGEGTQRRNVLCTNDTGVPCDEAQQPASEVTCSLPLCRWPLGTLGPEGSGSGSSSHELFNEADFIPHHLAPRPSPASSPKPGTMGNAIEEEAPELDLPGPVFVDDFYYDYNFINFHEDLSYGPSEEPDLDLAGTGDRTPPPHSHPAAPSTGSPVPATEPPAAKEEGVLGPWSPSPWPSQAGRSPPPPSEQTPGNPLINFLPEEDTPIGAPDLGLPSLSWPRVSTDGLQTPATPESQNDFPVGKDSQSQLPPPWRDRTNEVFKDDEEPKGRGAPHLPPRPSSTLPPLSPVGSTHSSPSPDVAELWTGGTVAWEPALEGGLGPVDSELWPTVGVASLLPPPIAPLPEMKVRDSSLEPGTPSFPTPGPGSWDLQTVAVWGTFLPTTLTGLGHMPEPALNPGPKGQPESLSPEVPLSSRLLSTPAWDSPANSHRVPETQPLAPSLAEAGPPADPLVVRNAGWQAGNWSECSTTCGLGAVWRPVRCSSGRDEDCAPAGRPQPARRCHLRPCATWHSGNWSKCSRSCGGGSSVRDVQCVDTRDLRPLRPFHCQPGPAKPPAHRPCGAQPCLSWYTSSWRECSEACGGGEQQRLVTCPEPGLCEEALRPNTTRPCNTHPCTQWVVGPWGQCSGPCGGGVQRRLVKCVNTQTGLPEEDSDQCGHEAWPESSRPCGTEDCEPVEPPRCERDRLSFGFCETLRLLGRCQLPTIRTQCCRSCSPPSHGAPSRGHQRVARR
Chain of Cytochrome P450 3A4 (P08684 whole entry): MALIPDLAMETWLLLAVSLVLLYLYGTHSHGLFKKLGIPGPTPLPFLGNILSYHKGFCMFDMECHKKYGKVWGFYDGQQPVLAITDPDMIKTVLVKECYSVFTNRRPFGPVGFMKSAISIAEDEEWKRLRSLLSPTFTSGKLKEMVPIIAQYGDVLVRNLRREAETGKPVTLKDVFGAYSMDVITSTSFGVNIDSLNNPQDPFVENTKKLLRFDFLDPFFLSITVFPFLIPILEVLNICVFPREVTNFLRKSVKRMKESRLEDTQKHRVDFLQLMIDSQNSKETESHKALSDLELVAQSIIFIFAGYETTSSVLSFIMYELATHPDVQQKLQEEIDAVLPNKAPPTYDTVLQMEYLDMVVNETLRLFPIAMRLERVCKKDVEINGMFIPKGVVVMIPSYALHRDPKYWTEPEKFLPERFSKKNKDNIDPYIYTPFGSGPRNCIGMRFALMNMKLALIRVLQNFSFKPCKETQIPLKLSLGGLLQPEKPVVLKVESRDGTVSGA

| Compound | IC50 [1] [nM] | Ratio IC50 [2] | other results |
| --- | --- | --- | --- |
| COc1cccc(C(=O)NC[C@@]2(c3ccnn3C)NC(=O)NC2=O)c1-c1ccc(C(F)(F)F)cc1 | 29 |  |  |
| O=C1NC(=O)[C@](CNC(=O)c2cnn(-c3ccccc3F)n2)(C2CC2)N1 |  | 0.4 |  |
| O=C1NC(=O)C(CNC(=O)c2ccccc2-c2ccc(C(F)(F)F)cc2)(c2cscn2)N1 (centres undefined) |  | 67 | CL [3]: 23.3 mL/min/kg |
| O=C1NC(=O)C(CNC(=O)c2ccccc2-c2ccc(C(F)(F)F)cc2)(c2ccnn2CC(F)(F)F)N1 (centres undefined) |  | 29 |  |
| Cc1sc(-c2ccccc2)nc1C1(CNC(=O)c2ccc(F)c(F)c2-c2ccc(C(F)(F)F)cc2)NC(=O)NC1=O (centres undefined) | 47 |  | Ratio IC50 [4]: 10 |
| Cc1nc(Cn2ncc(C(=O)NC[C@@]3(C4CC4)NC(=O)NC3=O)n2)cs1 | 930 | 33.5 |  |
| Cc1ccc(-c2cccc(C(=O)NC[C@@]3(C4CC4)NC(=O)NC3=O)c2)cc1 | 2300 |  |  |
| Cc1c(C2(CNC(=O)c3ccccc3-c3ccc(C(F)(F)F)cc3)NC(=O)NC2=O)cnn1C (centres undefined) |  | 18 |  |
| Cn1cc(Cn2ncc(C(=O)NC[C@@]3(C4CC4)NC(=O)NC3=O)n2)cn1 | 850 | 29.4 |  |
| O=C1NC(=O)[C@](CNC(=O)c2cnn(-c3cccc(F)c3)n2)(C2CC2)N1 |  | 1.1 |  |
| O=C1NC(=O)C(CNC(=O)c2ccccc2-c2ccc(C(F)(F)F)cc2)(c2ncsc2C(F)(F)F)N1 (centres undefined) |  | 31 |  |
| O=C1NC(=O)[C@](CNC(=O)c2cnn(-c3cnsc3)n2)(C2CC2)N1 |  | 0.2 |  |
| O=C1NC(=O)[C@](CNC(=O)c2cnn(Cc3nccs3)n2)(C2CC2)N1 | 910 | 4.6 |  |
| Cn1nccc1[C@]1(CNC(=O)c2cccc(F)c2-c2ccc(C(F)(F)F)cc2)NC(=O)NC1=O | 5 |  | CL [3]: 12 mL/min/kg |
| O=C1NC(=O)[C@](CNC(=O)c2cnn(-c3ccc(F)cc3)n2)(C2CC2)N1 |  |  | Ratio IC50 [5]: 863; Ratio IC50 [4]: 26; Ratio IC50 [6]: > 20800; Ratio IC50 [7]: 12700; Ratio IC50 [8]: 41700 |
| Cc1ccc(-c2ccc(C(=O)NC[C@@]3(C4CC4)NC(=O)NC3=O)cc2)cc1 | 580 | 4.7 10^-4No_unit |  |
| Cn1nccc1[C@]1(CNC(=O)c2ccc(Cl)c(F)c2-c2ccc(C(F)(F)F)cc2)NC(=O)NC1=O | 3 |  |  |
| CCn1nccc1C1(CNC(=O)c2ccccc2-c2ccc(C(F)(F)F)cc2)NC(=O)NC1=O (centres undefined) |  | 96 | CL [3]: 17 mL/min/kg |
| O=C1NC(=O)[C@](CNC(=O)c2ccccc2-c2ccc(C(F)(F)F)cc2)(C2CC2)N1 |  | 11 | CL [3]: 1.7 mL/min/kg |
| Cn1nccc1[C@]1(CNC(=O)c2c(F)cccc2-c2ccc(C(F)(F)F)cc2)NC(=O)NC1=O | 79 |  |  |

| Compound | IC50 [1] [nM] | Ratio IC50 [2] | other results |
| --- | --- | --- | --- |
| Cn1nccc1[C@]1(CNC(=O)c2ccccc2-c2ccc(C(F)(F)F)cc2)NC(=O)NC1=O |  |  | Ratio IC50 [5]: 303; Ratio IC50 [4]: 1; Ratio IC50 [6]: 1440; Ratio IC50 [7]: 3220; Ratio IC50 [9]: 8320; Activity [10]: 16.6 µM; Ratio IC50 [8]: 6390 |
| O=C1NC(=O)[C@](CNC(=O)c2cnn(-c3cccc(Cl)c3)n2)(C2CC2)N1 |  | 0.1 |  |
| O=C1NC(=O)[C@](CNC(=O)c2cnn(-c3ccc(Cl)cc3)n2)(C2CC2)N1 |  | 0.8 |  |
| Cn1nccc1[C@]1(CNC(=O)c2cc(F)ccc2-c2ccc(C(F)(F)F)cc2)NC(=O)NC1=O | 19 |  | CL [3]: 10 mL/min/kg |
| O=C1NC(=O)[C@](CNC(=O)c2cnn(-c3ccc(F)cn3)n2)(C2CC2)N1 | 115 | 0.6 |  |
| O=C1NC(=O)[C@](CNC(=O)c2cnn(-c3ccccc3)c2)(C2CC2)N1 |  | 0.03 |  |
| Cn1nccc1[C@]1(CNC(=O)c2cccc(Cl)c2-c2ccc(C(F)(F)F)cc2)NC(=O)NC1=O | 16 |  |  |
| O=C1NC(=O)[C@](CNC(=O)c2cnn(-c3ccccc3)n2)(C2CC2)N1 | 61 |  | F [11]: 74%; Ratio IC50 [4]: 0.2; Fu [12]: 15%; CL [3]: 12 mL/min/kg |
| O=C1NC(=O)[C@](CNC(=O)c2cnn(Cc3ccc(Cl)cc3)c2)(C2CC2)N1 | 280 | 7.4 |  |
| Cn1ccnc1C1(CNC(=O)c2ccccc2-c2ccc(C(F)(F)F)cc2)NC(=O)NC1=O (single isomer, unassigned) | 3 | 450 | AUC [13]: 0.6 kg·h/L; Activity [10]: 0.6 µM |
| Cc1ccc(-c2ccccc2C(=O)NC[C@@]2(C3CC3)NC(=O)NC2=O)cc1 |  | 12 and 12.4 | Ratio IC50 [5]: 826; Ratio IC50 [6]: 115; Ratio IC50 [7]: 213; Ratio IC50 [9]: 759; Ratio IC50 [8]: 872 |
| Cn1nccc1[C@]1(CNC(=O)c2ccc(F)cc2-c2ccc(C(F)(F)F)cc2)NC(=O)NC1=O | 19 |  | CL [3]: 15 mL/min/kg |
| Cn1nc(-c2ccccc2)cc1C1(CNC(=O)c2ccc(F)c(F)c2-c2ccc(C(F)(F)F)cc2)NC(=O)NC1=O (centres undefined) |  | 1450 | Ratio IC50 [5]: 863; Ratio IC50 [4]: 26; Ratio IC50 [6]: > 20800; Ratio IC50 [7]: 12700; Ratio IC50 [8]: 41700 |
| Cc1scnc1C1(CNC(=O)c2ccccc2-c2ccc(C(F)(F)F)cc2)NC(=O)NC1=O (centres undefined) | 6 | 188 | CL [3]: 20 mL/min/kg |
| Cn1nccc1[C@]1(CNC(=O)c2ccc(C(F)(F)F)c(F)c2-c2ccc(C(F)(F)F)cc2)NC(=O)NC1=O | 10 |  |  |
| Cc1cn(-c2ccccc2)nc1C1(CNC(=O)c2ccc(F)c(F)c2-c2ccc(C(F)(F)F)cc2)NC(=O)NC1=O (centres undefined) | 8 |  | Ratio IC50 [4]: 14 |
| Cc1ccc(-n2ncc(C(=O)NC[C@@]3(C4CC4)NC(=O)NC3=O)n2)cc1 |  | 0.1 |  |
| Cc1sc(-c2cccnc2)nc1C1(CNC(=O)c2ccc(F)c(F)c2-c2ccc(C(F)(F)F)cc2)NC(=O)NC1=O (centres undefined) | 9 |  | Ratio IC50 [4]: 14 |
| Cc1nc(C2(CNC(=O)c3ccccc3-c3ccc(C(F)(F)F)cc3)NC(=O)NC2=O)c(C)s1 (centres undefined) | 15 | 36 |  |
